Test results reported in US10183009B2, “Therapeutic compounds and uses thereof” (GENENTECH, INC., priority 2014, dated 2019).

Molecular target: BRD9 (Homo sapiens (Human), UniProt Q9H8M2)
Assay: BRD9 AlphaLisa Binding Assay
Protocol: After 20 minutes incubation at room temperature AlphaLisa Streptavidin Acceptor Beads (Perkin-A[…]) and AlphaLisa Nickel donor beads (Perkin AS 10 ID) were added to a final concentration of 15 ug/mL each.

Sequence of BRD9 (Q9H8M2 134-239 limits assumed): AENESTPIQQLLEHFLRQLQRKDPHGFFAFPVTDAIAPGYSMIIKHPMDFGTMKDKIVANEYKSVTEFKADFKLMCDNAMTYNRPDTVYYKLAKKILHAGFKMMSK

Row | SMILES | IC50
1 | C/C=C/Cn1cc(-c2ccc(C(=O)N3CCNCC3)c(Cl)c2)c2cc(C)[nH]c2c1=O [Example 116, (E)-6-(but-2-en-1-yl)-4-(3-chloro-4-(piperazine-1-carbonyl)phenyl)-2-methyl-1H-pyrrolo[2,3-c]pyridin-7(6H)-one] | 4 nM
2 | C/C=C/Cn1cc(-c2ccc(C(=O)N3CCC(C(=O)O)CC3)c(Cl)c2)c2cc(C)[nH]c2c1=O [Example 112, 1-[4-[6-[(E)-but-2-enyl]-2-methyl-7-oxo-1H-pyrrolo[2,3-c]pyridin-4-yl]-2-chloro-benzoyl]piperidine-4-carboxylic acid] | 8 nM
3 | C/C=C/Cn1cc(-c2ncc(C(=O)N3CCN(C)CC3)cc2OC)c2cc(C)[nH]c2c1=O [Example 110, 6-[(E)-but-2-enyl]-4-[3-methoxy-5-(4-methylpiperazine-1-carbonyl)-2-pyridyl]-2-methyl-1H-pyrrolo[2,3-c]pyridin-7-one] | 39 nM
4 | C/C=C/Cn1cc(-c2ccc(NS(C)(=O)=O)cc2)c2cc[nH]c2c1=O [Example 34, N-[4-[6-[(E)-but-2-enyl]-7-oxo-1H-pyrrolo[2,3-c]pyridin-4-yl]phenyl]methanesulfonamide] | 22 nM
5 | C/C=C/Cn1cc(-c2cc(C(=O)NCc3cncnc3)ccc2OC)c2cc(C)[nH]c2c1=O [Example 120, 3-[6-[(E)-but-2-enyl]-2-methyl-7-oxo-1H-pyrrolo[2,3-c]pyridin-4-yl]-4-methoxy-N-(pyrimidin-5-ylmethyl)benzamide] | 3 nM
6 | C/C=C/Cn1cc(-c2cc(C(=O)NCc3cnccn3)ccc2OC)c2cc(C)[nH]c2c1=O [Example 109, 3-[6-[(E)-but-2-enyl]-2-methyl-7-oxo-1H-pyrrolo[2,3-c]pyridin-4-yl]-4-methoxy-N-(pyrazin-2-ylmethyl)benzamide] | 6 nM
7 | C/C=C/Cn1cc(-c2cc(C(=O)N(C)C)ccc2OC)c2cc[nH]c2c1=O [Example 64, 3-[6-[(E)-but-2-enyl]-7-oxo-1H-pyrrolo[2,3-c]pyridin-4-yl]-4-methoxy-N,N-dimethyl-benzamide] | 56 nM
8 | C/C=C/Cn1cc(-c2ccc(C(=O)N3CCC(C(N)=O)CC3)c(Cl)c2)c2cc(C)[nH]c2c1=O [Example 113, (E)-1-(4-(6-(but-2-en-1-yl)-2-methyl-7-oxo-6,7-dihydro-1H-pyrrolo[2,3-c]pyridin-4-yl)-2-chlorobenzoyl)piperidine-4-carboxamide] | 3 nM
9 | CCCCn1cc(-c2cc(C(=O)N3CC4(CN(C(C)=O)C4)C3)ccc2OC)c2cc[nH]c2c1=O [Example 78, 4-[5-(2-acetyl-2,6-diazaspiro[3.3]heptane-6-carbonyl)-2-methoxy-phenyl]-6-butyl-1H-pyrrolo[2,3-c]pyridin-7-one] | 65 nM
10 | C/C=C/Cn1cc(-c2ccc(C(=O)N3CCOCC3)c(OC(C)C)c2)c2cc(C)[nH]c2c1=O [Example 114, 6-[(E)-but-2-enyl]-4-[3-isopropoxy-4-(morpholine-4-carbonyl)phenyl]-2-methyl-1H-pyrrolo[2,3-c]pyridin-7-one] | 3 nM
11 | C/C=C/Cn1cc(-c2cc(C(=O)NC)ccc2OC)c2cc[nH]c2c1=O [Example 67, 3-[6-[(E)-but-2-enyl]-7-oxo-1H-pyrrolo[2,3-c]pyridin-4-yl]-4-methoxy-N-methyl-benzamide] | 35 nM
12 | C/C=C/Cn1cc(-c2cc(F)cc(C(=O)N(C)C)c2)c2cc[nH]c2c1=O [Example 19, 3-[6-[(E)-but-2-enyl]-7-oxo-1H-pyrrolo[2,3-c]pyridin-4-yl]-5-fluoro-N,N-dimethyl-benzamide] | 94 nM
13 | C/C=C/Cn1cc(-c2ccc(C(=O)N3CCCC3)c(Cl)c2)c2cc[nH]c2c1=O [Example 52, 6-[(E)-but-2-enyl]-4-[3-chloro-4-(pyrrolidine-1-carbonyl)phenyl]-1H-pyrrolo[2,3-c]pyridin-7-one] | 46 nM
14 | C/C=C/Cn1cc(-c2ccc(C(=O)N3CC(n4ccc(N)n4)C3)cc2)c2cc(C)[nH]c2c1=O [Example 118, 4-[4-[3-(3-aminopyrazol-1-yl)azetidine-1-carbonyl]phenyl]-6-[(E)-but-2-enyl]-2-methyl-1H-pyrrolo[2,3-c]pyridin-7-one] | 9 nM
15 | C/C=C/Cn1cc(-c2ccc(C(=O)NC)cc2)c2cc[nH]c2c1=O [Example 24, 4-[6-[(E)-but-2-enyl]-7-oxo-1H-pyrrolo[2,3-c]pyridin-4-yl]-N-methyl-benzamide] | 29 nM
16 | C/C=C/Cn1cc(-c2cccc(C(N)=O)c2)c2cc[nH]c2c1=O [Example 30, 3-[6-[(E)-but-2-enyl]-7-oxo-1H-pyrrolo[2,3-c]pyridin-4-yl]benzamide] | 510 nM
17 | C/C=C/Cn1cc(-c2ccc(C(C)(C)O)cc2OC)c2cc(C)[nH]c2c1=O [Example 107, 6-[(E)-but-2-enyl]-4-[4-(1-hydroxy-1-methyl-ethyl)-2-methoxy-phenyl]-2-methyl-1H-pyrrolo[2,3-c]pyridin-7-one] | 100 nM
18 | CCCCn1cc(-c2ccc(C(C)(C)O)cc2OC)c2cc[nH]c2c1=O [Example 80, 6-butyl-4-[4-(1-hydroxy-1-methyl-ethyl)-2-methoxy-phenyl]-1H-pyrrolo[2,3-c]pyridin-7-one] | 73 nM
19 | C/C=C/Cn1cc(-c2cc(C(=O)N3CCCC3)ccc2OC)c2cc[nH]c2c1=O [Example 68, 6-[(E)-but-2-enyl]-4-[2-methoxy-5-(pyrrolidine-1-carbonyl)phenyl]-1H-pyrrolo[2,3-c]pyridin-7-one] | 39 nM
20 | C/C=C/Cn1cc(-c2cc(C(=O)NCC(C)C)ccc2OC)c2cc[nH]c2c1=O [Example 70, 3-[6-[(E)-but-2-enyl]-7-oxo-1H-pyrrolo[2,3-c]pyridin-4-yl]-N-isobutyl-4-methoxy-benzamide] | 28 nM
21 | C/C=C/Cn1cc(-c2cnc(C(=O)N3CCOCC3)nc2)c2cc(C)[nH]c2c1=O [Example 105, 6-[(E)-but-2-enyl]-2-methyl-4-[2-(morpholine-4-carbonyl)pyrimidin-5-yl]-1H-pyrrolo[2,3-c]pyridin-7-one] | 83 nM
22 | C/C=C/Cn1cc(-c2ccc(C(=O)N3CCOCC3)c(F)c2F)c2cc(C)[nH]c2c1=O [Example 93, 6-[(E)-but-2-enyl]-4-[2,3-difluoro-4-(morpholine-4-carbonyl)phenyl]-2-methyl-1H-pyrrolo[2,3-c]pyridin-7-one] | 34 nM
23 | CCCCn1cc(-c2ccc(C(C)(C)O)cc2)c2cc[nH]c2c1=O [Example 82, 6-butyl-4-[4-(1-hydroxy-1-methyl-ethyl)phenyl]-1H-pyrrolo[2,3-c]pyridin-7-one] | 43 nM

Next, values leading:

Row | IC50 | SMILES
24 | 22 nM | C/C=C/Cn1cc(-c2cc(Cl)c(C(=O)N3CCOCC3)cn2)c2cc(C)[nH]c2c1=O [Example 104, 6-[(E)-but-2-enyl]-4-[4-chloro-5-(morpholine-4-carbonyl)-2-pyridyl]-2-methyl-1H-pyrrolo[2,3-c]pyridin-7-one]
25 | 35 nM | C/C=C/Cn1cc(-c2cc(C(=O)NCCO)ccc2OC)c2cc[nH]c2c1=O [Example 73, 3-[6-[(E)-but-2-enyl]-7-oxo-1H-pyrrolo[2,3-c]pyridin-4-yl]-N-(2-hydroxyethyl)-4-methoxy-benzamide]
26 | 27 nM | C/C=C/Cn1cc(-c2cc(C(=O)NCCC)ccc2OC)c2cc[nH]c2c1=O [Example 74, 3-[6-[(E)-but-2-enyl]-7-oxo-1H-pyrrolo[2,3-c]pyridin-4-yl]-4-methoxy-N-propyl-benzamide]
27 | 13 nM | C/C=C/Cn1cc(-c2ccc(C(=O)N3CCOCC3)c(Cl)c2)c2cc[nH]c2c1=O [Example 51, 6-[(E)-but-2-enyl]-4-[3-chloro-4-(morpholine-4-carbonyl)phenyl]-1H-pyrrolo[2,3-c]pyridin-7-one]
28 | 46 nM | C/C=C/Cn1cc(-c2ncc(C(=O)N3CCOCC3)cc2OC)c2cc(C)[nH]c2c1=O [Example 103, 6-[(E)-but-2-enyl]-4-[3-methoxy-5-(morpholine-4-carbonyl)-2-pyridyl]-2-methyl-1H-pyrrolo[2,3-c]pyridin-7-one]
29 | 13 nM | C/C=C/Cn1cc(-c2ccc(C(=O)N3CCCC3)cc2)c2cc(C)[nH]c2c1=O [Example 91, 6-[(E)-but-2-enyl]-2-methyl-4-[4-(pyrrolidine-1-carbonyl)phenyl]-1H-pyrrolo[2,3-c]pyridin-7-one]
30 | 210 nM | CCCCn1cc(-c2ncc(C(=O)N3CCOCC3)cc2OC)c2cc(C)[nH]c2c1=O [Example 123, 6-butyl-4-[3-methoxy-5-(morpholine-4-carbonyl)-2-pyridyl]-2-methyl-1H-pyrrolo[2,3-c]pyridin-7-one]
31 | 10 nM | C/C=C/Cn1cc(-c2ccc(C(=O)N3CCCC3)c(Cl)c2)c2cc(C)[nH]c2c1=O [Example 92, 6-[(E)-but-2-enyl]-4-[3-chloro-4-(pyrrolidine-1-carbonyl)phenyl]-2-methyl-1H-pyrrolo[2,3-c]pyridin-7-one]
32 | 5 nM | C/C=C/Cn1cc(-c2ccc(C(=O)N3CCOCC3)c(OCC3CC3)c2)c2cc(C)[nH]c2c1=O [Example 115, 6-[(E)-but-2-enyl]-4-[3-(cyclopropylmethoxy)-4-(morpholine-4-carbonyl)phenyl]-2-methyl-1H-pyrrolo[2,3-c]pyridin-7-one]
33 | 5 nM | C/C=C/Cn1cc(-c2ccc(C(=O)N3CC(n4ccc(N)n4)C3)c(Cl)c2)c2cc(C)[nH]c2c1=O [Example 117, (E)-4-(4-(3-(3-amino-1H-pyrazol-1-yl)azetidine-1-carbonyl)-3-chlorophenyl)-6-(but-2-en-1-yl)-2-methyl-1H-pyrrolo[2,3-c]pyridin-7(6H)-one]
34 | 180 nM | CCCCn1cc(-c2ncc(C(=O)N3CCN(C)CC3)cc2OC)c2cc(C)[nH]c2c1=O [Example 122, 6-butyl-4-[3-methoxy-5-(4-methylpiperazine-1-carbonyl)-2-pyridyl]-2-methyl-1H-pyrrolo[2,3-c]pyridin-7-one]
35 | 17 nM | CCCCn1cc(-c2cc(OC)c(C(=O)N3CCOCC3)cc2OC)c2cc(C)[nH]c2c1=O [Example 121, 6-butyl-4-[2,5-dimethoxy-4-(morpholine-4-carbonyl)phenyl]-2-methyl-1H-pyrrolo[2,3-c]pyridin-7-one]
36 | 130 nM | C/C=C/Cn1cc(-c2cc(C(=O)N(C)C)ccc2F)c2cc[nH]c2c1=O [Example 41, 3-[6-[(E)-but-2-enyl]-7-oxo-1H-pyrrolo[2,3-c]pyridin-4-yl]-4-fluoro-N,N-dimethyl-benzamide]
